From US20170107212A1, “NOVEL COMPOUNDS” (Bayer Pharma Aktiengesellschaft, priority 2014, published 2017) come the findings set out here.

The subject of assay [1] is constitutive active colorectal cancer cell (CRC) Wnt pathway, HCT116 TOPFlash. Kind of assay: Cellular reporter assay, HCT116 Super TopFlash (constitutive active Wnt pathway), luciferase expression. It is filed as cell-based. Conditions: Homo sapiens, HCT-116, 36 h, HCT116 Super TopFlash reporter cells, 36 hours incubation, dilution series 50 μM to 15 nM. An outline of the steps: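 HCT116 cells stably carrying Super TopFlash (β-catenin ΔS45, constitutive Wnt) run in parallel with FOP control line; compounds 50 μM to 15 nM (3.16-fold) in CAFTY buffer pH 7.4 with 2 mM Ca2+, 0.01% BSA, 36 h at 37 °C. Luciferase luminescence read as Wnt activity.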
A general note: A reporter such as luciferase makes a cellular process visible.

Another assay relates to HCT116 FOPFlash. Kind of assay: Control reporter assay, HCT116 FOP control vector (non-functional TCF elements), luciferase expression. It is filed as cell-based. As to conditions: Homo sapiens, HCT-116, 36 h, HCT116 FOP control reporter cells, 36 hours incubation, dilution series 50 μM to 15 nM. An outline of the steps:
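Stable HCT116 cells carrying FOP vector (randomized non-functional TCF sites) plus pcDNA3, run in parallel with TOP line; compounds 50 μM to 15 nM (3.16-fold steps) added in CAFTY buffer pH 7.4 with 2 mM Ca2+, 0.01% BSA. Incubated 36 h at 37 °C, 5% CO2; luciferase luminescence read.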

With `CN1CCN(CC(=O)Nc2cc(C(=O)Nc3cnc(-c4ccncc4)cn3)ccc2OC(F)(F)F)CC1` [Example 52, 3-{[(4-methylpiperazin-1-yl)acetyl]amino}-N-[5-(pyridin-4-yl)pyrazin-2-yl]-4-(trifluoromethoxy)benzamide], the half-maximal inhibitory concentration (IC50) – broadly, the concentration at which inhibition is half-maximal – in assay [1] was 0.064 µM; in the assay with HCT116 FOPFlash, ≥ 50 µM.
On the same counts, the results for `Cc1ncsc1-c1nnc(NC(=O)c2ccc(OC(F)(F)F)c(NC(=O)CN3CCOCC3)c2)s1` [Example 108, N-[5-(4-methyl-1,3-thiazol-5-yl)-1,3,4-thiadiazol-2-yl)-3-[(morpholin-4-ylacetyl)amino]-4-(trifluoromethoxy)benzamide] are ≥ 50 µM and ≥ 50 µM.
The like results for `Nc1ncc(-c2nnc(NC(=O)c3ccc(OC(F)(F)F)c(NC(=O)CN4CCOCC4)c3)s2)cn1` [Example 94, N-[5-(2-aminopyrimidin-5-yl)-1,3,4-thiadiazol-2-yl]-3-[(morpholin-4-ylacetyl)amino]-4-(trifluoromethoxy)benzamide] were, in that order, 23.2 µM and ≥ 50 µM.
On the same counts, the results for `COc1ccc(NC(=O)c2ccc(-c3ccncc3)s2)cc1NC(=O)CN1CCOCC1` [Example 25, N-{4-methoxy-3-[(morpholin-4-ylacetyl)amino]phenyl}-5-(pyridin-4-yl)thiophene-2-carboxamide] are 4.4 µM and ≥ 50 µM.
As to `COc1ncc(-c2ccc(NC(=O)c3ccc(OC(F)(F)F)c(NC(=O)C(C)N4CCOCC4)c3)cn2)cn1` (stereo not shown) [Example 7, N-[6-(2-methoxypyrimidin-5-yl)pyridin-3-yl]-3-{[2-(morpholin-4-yl)propanoyl]amino}-4-(trifluoromethoxy)benzamide], the IC50 is 0.115 µM in assay [1] and ≥ 50 µM in the assay with HCT116 FOPFlash.
On the same counts, the results for `O=C(CN1CCOCC1)Nc1cc(C(=O)Nc2nnc(-c3cncnc3)s2)ccc1OC1CC1` [Example 72, 4-(cyclopropyloxy)-3-[(morpholin-4-ylacetyl)amino]-N-[5-(pyrimidin-5-yl)-1,3-4-thiadiazol-2-yl)benzamide] are 1.3 µM and ≥ 50 µM.
Regarding `CN1CCN(CC(=O)Nc2cc(C(=O)Nc3nnc(-c4cccnc4)s3)ccc2OC2CC2)CC1` [Example 34, 4-(cyclopropyloxy)-3-{[(4-methylpiperazin-1-yl)acetyl]amino}-N-[5-(pyridin-3-yl)-1,3,4-thiadiazol-2-yl]benzamide], the IC50 in assay [1] amounted to 0.38 µM; in the assay on HCT116 FOPFlash it was 14 µM.
On the same counts, the results for `O=C(CN1CCOCC1)Nc1cc(C(=O)Nc2nnc(-c3ccncc3)s2)ccc1OC(F)(F)F` [Example 81, 3-[(morpholin-4-ylacetyl)amino]-N-[5-(pyridin-4-yl)-1,3,4-thiadiazol-2-yl]-4-(trifluoromethoxy)benzamide] are ≥ 50 µM and ≥ 50 µM.
The like results for `Cc1ccncc1-c1nnc(NC(=O)c2ccc(OCC3COC3)c(NC(=O)CN3CCN(C)CC3)c2)s1` [Example 115, 3-{[(4-methylpiperazin-1-yl)acetyl]amino}-N-[5-(4-methylpyridin-3-yl)-1,3,4-thiadiazol-2-yl]-4-(oxetan-3-ylmethoxy)benzamide] were, in that order, ≥ 50 µM and ≥ 50 µM.
Take `Cc1ncsc1-c1nnc(NC(=O)c2ccc(OC(F)(F)F)c(NC(=O)CN3CCN(C)CC3)c2)s1` [Example 111, 3-{[(4-methylpiperazin-1-yl)acetyl]amino}-N-[5-(4-methyl-1,3-thiazol-5-yl)-1,3,4-thiadiazol-2-yl]-4-(trifluoromethoxy)benzamide]: the concentration for half-maximal inhibition (IC50) (in assay [1]; in the assay on HCT116 FOPFlash) was ≥ 50 µM in each case.
As to `Cc1scnc1-c1nnc(NC(=O)c2ccc(OC(F)(F)F)c(NC(=O)CN3CCOCC3)c2)s1` [Example 105, N-[5-(5-methyl-1,3-thiazol-4-yl)-1,3,4-thiadiazol-2-yl)-3-[(morpholin-4-ylacetyl)amino]-4-(trifluoromethoxy)benzamide], the IC50 (in assay [1]; with HCT116 FOPFlash) was ≥ 50 µM in each case.
